Data: ChEMBL document CHEMBL4476876, “Compounds for the modulation of myc activity” (2018)

Experiments:
[1] = test system: NCI-H2171; test: Antiproliferative activity against human NCI-H2171 cells after 72 hrs by ATPlite assay; format: functional, cell-based; conditions: NCI-H2171, 72 h
[2] = target: Myc proto-oncogene protein (Homo sapiens, UniProt P01106); test: Inhibition of human c-Myc assessed as reduction in c-Myc/Max/Ebox DNA complex formation using pre-formed complex of c-Myc and biotinylated DNA containing single Ebox-sequence followed by compound addition and further addition of his6-tagged c-Max and incubated for 2 hrs by AlphaScreen assay
Sequence of Myc proto-oncogene protein (P01106 whole entry): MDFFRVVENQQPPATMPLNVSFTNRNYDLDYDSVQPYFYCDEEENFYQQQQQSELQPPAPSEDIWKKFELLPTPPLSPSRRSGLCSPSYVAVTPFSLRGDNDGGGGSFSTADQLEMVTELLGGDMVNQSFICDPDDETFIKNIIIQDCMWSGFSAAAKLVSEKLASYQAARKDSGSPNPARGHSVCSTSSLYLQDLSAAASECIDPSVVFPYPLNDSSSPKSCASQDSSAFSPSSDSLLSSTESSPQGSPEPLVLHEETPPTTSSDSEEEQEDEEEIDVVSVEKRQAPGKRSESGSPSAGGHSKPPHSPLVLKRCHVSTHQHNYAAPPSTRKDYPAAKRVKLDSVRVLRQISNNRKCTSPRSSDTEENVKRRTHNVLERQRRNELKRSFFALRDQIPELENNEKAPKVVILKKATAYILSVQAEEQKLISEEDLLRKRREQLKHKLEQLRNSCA

Row | SMILES | IC50 [1] | IC50 [2]
1 | CCN1[C@H](C)Cc2c(sc(NC(C)=O)c2-c2nc3c(C(F)F)nccc3s2)[C@H]1C | < 500 nM | 
2 | O=C(CC[N+]12CCN(CC1)CC2)Nc1sc2c(c1-c1nc3cnccc3s1)CCNC2 |  | < 500 nM
3 | CC[C@H](C)NCCC(=O)Nc1sc2c(c1-c1nc3cnccc3s1)C[C@H](C)NC2 | < 500 nM | 
4 | CC[C@H](C)NCCC(=O)Nc1sc2c(c1-c1nc3cnccc3s1)CN[C@H](C)C2 | < 500 nM | 
